# Measured values reported in US20200163938A1, “PHARMACEUTICAL COMPOSITION COMPRISING IRON CHELATOR EXHIBITING ANTITUMOR ACTIVITY, ANTIBACTERIAL ACTIVITY AND/OR ANTIVIRUS ACTIVITY, AND HAVING REDUCED SIDE EFFECTS” (priority 2017, published 2020).
# Entries after “also recorded” stand apart in the source; their conditions may differ.
# How the values were obtained:
# S. mutans (ATCC25175) = test: Antibacterial activity, turbidity and ATP assay; assay type: cell-based, Streptococcus mutans; conditions: aerobic culture 37° C., 18 hours; FIGS. 6A, 6B
# Method: First, the antibacterial activity of a dental caries-causing bacterium, S. mutans (ATCC25175) was examined. With the use of a liquid medium prepared by adding a yeast extract and the chelating agent of each test group to TSB medium, aerobic culture was performed at 37° C. for 18 hours, and then turbidity was found from optical density (OD570 or 595 nm). Cell activity was measured using an ATP assay kit (Kikkoman Corporation). Results were as depicted in FIGS. 6A and 6B.
# [1] = test system: S. aureus (ATCC6538; Staphylococcus aureus); test: Minimum growth inhibition concentration (MIC); assay type: cell-based
# Method: (§1) The dilution series of the chelating agent of each test group was prepared according to a standard method, microbes were inoculated, and then 24 hours later, the microbial growth was confirmed, thereby determining the minimum growth inhibition concentration of the chelating agent of each test group. Microbes used herein were S. aureus (ATCC6538; Staphylococcus aureus), P. aeruginosa (ATCC9027; Pseudomonas aeruginosa) and C. albicans (ATCC10231; Candida albicans). Drugs used herein were oxacillin, vancomycin and deferasirox as positive controls.
# [2] = test system: C. albicans (ATCC10231; Candida albicans); test: Minimum growth inhibition concentration (MIC); assay type: cell-based; conditions: 24 hours
# Method: as §1
# [3] = test system: P. aeruginosa (ATCC9027; Pseudomonas aeruginosa); test: Minimum growth inhibition concentration (MIC); assay type: cell-based
# Method: as §1
# HCT116 cells = test: Apoptosis induction, TUNEL staining; assay type: cell-based, human; conditions: 10 μg/mL, 48 hours, FIG. 11B
# Method: Furthermore, the apoptosis-inducing effects of the chelating agents of test groups 6 and 10 on tumors were confirmed. First, 100 μg/mL of the chelating agent of test group 6 or 50 μg/mL of the chelating agent of test group 10 was added to HSC-2 cells in a culture solution. After 48 hours of reaction, TUNEL Assay was carried out. Specifically, apoptosis induction was evaluated by the TUNEL staining method using a MK500 in situ Apoptosis Detection Kit (Takara Bio Inc.).
# Similarly, the apoptosis-inducing effects of the chelating agent of test group 6 or 10 on HCT116 cells were confirmed. 10 μg/mL of the chelating agent of test group 6 was added and 6.5 µg/mL of the chelating agent of test group 10 was added to the cells. After 48 hours of reaction, TUNEL staining was carried out similarly to the above.
compound,measurement,setting,value
Cl.OCC1OC(O)C(NCc2ccc(O)c(O)c2O)C(O)C1O (stereo not shown) [Test group 6],"antimicrobial effects on S. mutans (turbidity, ATP activity)",S. mutans (ATCC25175),strong antimicrobial effects; also recorded: very strong antibacterial activity
same,MIC S. aureus,[1]; 24 hours,400 mg/L
same,antimicrobial effects on S. aureus (in words),[1]; from Table 10,strong antimicrobial effects
same,MIC C. albicans,[2],>800 mg/L
same,MIC P. aeruginosa,[3]; 24 hours,400 mg/L
same,antimicrobial effects on P. aeruginosa (in words),[3]; from Table 10,exhibited antimicrobial effects
same,apoptosis-inducing effects (TUNEL staining),HCT116 cells,green-stained cells indicating apoptosis were confirmed
